Data as given in US20080051387A1, “TETRAHYDROPYRIDO[3,4-D]PYRIMIDINES AND RELATED ANALOGUES” (priority 2006, published 2008).

These compounds were tested against T1, chimeric human H3 receptor (Homo sapiens, UniProt Q9Y5N1) (assay: Chimeric human H3 receptor screening GTP binding assay (inhibition of histamine-stimulated GTP-gamma35S binding, Example 8)). Conditions: 1 h; assay described in Example 8; symbol "!" in column headed Ki; read-out: Ki ("!": percent inhibition of agonist-induced GTP-gammaS binding to H3).
T1 construct: rat Galpha-i2 (Gnai2, rat); made in house; host or cells: Sf9 insect cells (baculovirus); P2 membranes
Format: biochemical
Outline: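 Compound tested at 4 μM against 1 μM histamine stimulation; 125 pM GTP-gamma35S binding measured by filtration and scintillation after 60 min at room temperature. Membranes from Sf9 cells expressing chimeric human H3 plus G-protein subunits, in Tris pH 7.4/NaCl/MgCl2/GDP buffer; values are % inhibition after nonspecific subtraction.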

T1 sequence (Q9Y5N1 with tags, fused parts or gaps): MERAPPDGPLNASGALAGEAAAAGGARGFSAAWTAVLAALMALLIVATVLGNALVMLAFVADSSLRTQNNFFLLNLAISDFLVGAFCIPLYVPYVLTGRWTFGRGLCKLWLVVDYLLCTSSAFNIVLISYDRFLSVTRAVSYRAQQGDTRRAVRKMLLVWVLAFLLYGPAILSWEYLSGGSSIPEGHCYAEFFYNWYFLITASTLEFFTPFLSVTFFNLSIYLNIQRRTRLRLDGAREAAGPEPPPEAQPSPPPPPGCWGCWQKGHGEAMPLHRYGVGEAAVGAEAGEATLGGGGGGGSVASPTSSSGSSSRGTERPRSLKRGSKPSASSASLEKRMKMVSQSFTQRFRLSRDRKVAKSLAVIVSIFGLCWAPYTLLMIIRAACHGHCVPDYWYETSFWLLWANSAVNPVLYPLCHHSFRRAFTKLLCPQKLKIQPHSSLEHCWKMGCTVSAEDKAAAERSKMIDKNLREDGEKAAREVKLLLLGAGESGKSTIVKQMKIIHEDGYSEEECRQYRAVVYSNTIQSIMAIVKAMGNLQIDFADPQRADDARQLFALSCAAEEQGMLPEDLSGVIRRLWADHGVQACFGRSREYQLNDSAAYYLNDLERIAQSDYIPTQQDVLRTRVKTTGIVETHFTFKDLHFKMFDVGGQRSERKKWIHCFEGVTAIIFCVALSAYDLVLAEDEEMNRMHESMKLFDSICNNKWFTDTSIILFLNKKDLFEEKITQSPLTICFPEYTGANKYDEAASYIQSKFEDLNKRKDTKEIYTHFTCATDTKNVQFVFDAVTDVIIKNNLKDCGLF

Inhibition at 4 µM, ≥ 90%:
Cc1cccc(C(=O)N2CCc3cnc(N4CCN(C5CCC5)CC4)nc3CC2)c1N [Compound 537, 2-{[2-(4-cyclobutylpiperazin-1-yl)-5,6,8,9-tetrahydro-7H-pyrimido[4,5-d]azepin-7-yl]carbonyl}-6-methylaniline]
COc1ccc(/C=C/C(=O)N2CCc3cnc(N4CCN(C5CCC5)CC4)nc3CC2)c(OC)c1OC [Compound 571, 2-(4-cyclobutylpiperazin-1-yl)-7-[(2E)-3-(2,3,4-trimethoxyphenyl)prop-2-enoyl]-6,7,8,9-tetrahydro-5H-pyrimido[4,5-d]azepine]
CCOc1cc(C(=O)N2CCc3cnc(N4CCN(C5CCC5)CC4)nc3CC2)cc(OCC)c1OCC [Compound 385, 2-(4-cyclobutylpiperazin-1-yl)-7-(3,4,5-triethoxybenzoyl)-6,7,8,9-tetrahydro-5H-pyrimido[4,5-d]azepine]
O=C(/C=C/c1ccc(F)cc1)N1CCc2cnc(N3CCN(C4CCC4)CC3)nc2CC1 [Compound 548, 2-(4-cyclobutylpiperazin-1-yl)-7-[(2E)-3-(4-fluorophenyl)prop-2-enoyl]-6,7,8,9-tetrahydro-5H-pyrimido[4,5-d]azepine]
Cc1ccc(C(=O)N2CCc3cnc(N4CCN(C5CCC5)CC4)nc3CC2)s1 [Compound 445, 2-(4-cyclobutylpiperazin-1-yl)-7-[(5-methyl-2-thienyl)carbonyl]-6,7,8,9-tetrahydro-5H-pyrimido[4,5-d]azepine]
Cc1cccc(/C=C/C(=O)N2CCc3cnc(N4CCN(C5CCC5)CC4)nc3CC2)c1 [Compound 563, 2-(4-cyclobutylpiperazin-1-yl)-7-[(2E)-3-(3-methylphenyl)prop-2-enoyl]-6,7,8,9-tetrahydro-5H-pyrimido[4,5-d]azepine]
CC(C)c1ccc(/C=C/C(=O)N2CCc3cnc(N4CCN(C5CCC5)CC4)nc3CC2)cc1 [Compound 559, 2-(4-cyclobutylpiperazin-1-yl)-7-[(2E)-3-(4-isopropylphenyl)prop-2-enoyl]-6,7,8,9-tetrahydro-5H-pyrimido[4,5-d]azepine]
O=C(c1ccccc1C(F)(F)F)N1CCc2cnc(N3CCN(C4CCC4)CC3)nc2CC1 [Compound 439, 2-(4-cyclobutylpiperazin-1-yl)-7-[2-(trifluoromethyl)benzoyl]-6,7,8,9-tetrahydro-5H-pyrimido[4,5-d]azepine]
CSc1ccc(C(=O)N2CCc3cnc(N4CCN(C5CCC5)CC4)nc3CC2)s1 [Compound 448, 2-(4-cyclobutylpiperazin-1-yl)-7-{[5-(methylthio)-2-thienyl]carbonyl}-6,7,8,9-tetrahydro-5H-pyrimido[4,5-d]azepine]

Same assay, conditions: 1 h; assay of Example 8; symbol "!" in column headed Ki; read-out: percent inhibition of agonist-induced GTP-gammaS binding to H3

Inhibition at 4 µM, ≥ 90%:
CC(=O)c1ccc(N2CCc3cnc(N4CCN(C5CCC5)CC4)nc3CC2)nc1 [Compound 185, 1-{6-[2-(4-cyclobutylpiperazin-1-yl)-5,6,8,9-tetrahydro-7H-pyrimido[4,5-d]azepin-7-yl]pyridin-3-yl}ethanone]
c1cc2c(cc1CN1CCc3cnc(N4CCN(C5CCC5)CC4)nc3CC1)OCCO2 [Compound 258, 2-(4-cyclobutylpiperazin-1-yl)-7-(2,3-dihydro-1,4-benzodioxin-6-ylmethyl)-6,7,8,9-tetrahydro-5H-pyrimido[4,5-d]azepine]
CCOc1ccccc1CC(=O)N1CCc2cnc(N3CCN(C4CCC4)CC3)nc2CC1 [Compound 307, 2-(4-cyclobutylpiperazin-1-yl)-7-[(2-ethoxyphenyl)acetyl]-6,7,8,9-tetrahydro-5H-pyrimido[4,5-d]azepine]
O=C(Cc1ccccc1OC(F)(F)F)N1CCc2cnc(N3CCN(C4CCC4)CC3)nc2CC1 [Compound 313, 2-(4-cyclobutylpiperazin-1-yl)-7-{[2-(trifluoromethoxy)phenyl]acetyl}-6,7,8,9-tetrahydro-5H-pyrimido[4,5-d]azepine]
CSc1ccc(C(=O)N2CCc3cnc(N4CCN(C5CCC5)CC4)nc3CC2)cc1 [Compound 369, 2-(4-cyclobutylpiperazin-1-yl)-7-[4-(methylthio)benzoyl]-6,7,8,9-tetrahydro-5H-pyrimido[4,5-d]azepine]
COc1cccc(CC(=O)N2CCc3cnc(N4CCN(C5CCC5)CC4)nc3CC2)c1OC [Compound 312, 2-(4-cyclobutylpiperazin-1-yl)-7-[(2,3-dimethoxyphenyl)acetyl]-6,7,8,9-tetrahydro-5H-pyrimido[4,5-d]azepine]
O=C(Cc1ccc(OC(F)(F)F)cc1)N1CCc2cnc(N3CCN(C4CCC4)CC3)nc2CC1 [Compound 278, 2-(4-cyclobutylpiperazin-1-yl)-7-{[4-(trifluoromethoxy)phenyl]acetyl}-6,7,8,9-tetrahydro-5H-pyrimido[4,5-d]azepine]
COc1ccc(CC(=O)N2CCc3cnc(N4CCN(C5CCC5)CC4)nc3CC2)c(OC)c1 [Compound 310, 2-(4-cyclobutylpiperazin-1-yl)-7-[(2,4-dimethoxyphenyl)acetyl]-6,7,8,9-tetrahydro-5H-pyrimido[4,5-d]azepine]
O=C(CCC1CCCC1)N1CCc2cnc(N3CCN(C4CCC4)CC3)nc2CC1 [Compound 212, 2-(4-cyclobutylpiperazin-1-yl)-7-(3-cyclopentylpropanoyl)-6,7,8,9-tetrahydro-5H-pyrimido[4,5-d]azepine]
O=C(Cc1cccc(C(F)(F)F)c1)N1CCc2cnc(N3CCN(C4CCC4)CC3)nc2CC1 [Compound 288, 2-(4-cyclobutylpiperazin-1-yl)-7-{[3-(trifluoromethyl)phenyl]acetyl}-6,7,8,9-tetrahydro-5H-pyrimido[4,5-d]azepine]
CCCOc1ccc(C(=O)N2CCc3cnc(N4CCN(C5CCC5)CC4)nc3CC2)cc1 [Compound 379, 2-(4-cyclobutylpiperazin-1-yl)-7-(4-propoxybenzoyl)-6,7,8,9-tetrahydro-5H-pyrimido[4,5-d]azepine]
Cc1ccc(C(=O)N2CCc3cnc(N4CCN(C5CCC5)CC4)nc3CC2)cc1 [Compound 188, 2-(4-cyclobutylpiperazin-1-yl)-7-(4-methylbenzoyl)-6,7,8,9-tetrahydro-5H-pyrimido[4,5-d]azepine]
CCCN1CCc2cnc(N3CCN(C4CCC4)CC3)nc2CC1 [Compound 247, 2-(4-cyclobutylpiperazin-1-yl)-7-propyl-6,7,8,9-tetrahydro-5H-pyrimido[4,5-d]azepine]

Same assay, conditions: symbol ! in Ki; test compound 4 μM, 1 μM histamine; read-out: percent inhibition of agonist-induced GTP-gammaS binding to H3

Inhibition at 4 µM, ≥ 90%:
c1nc2c(c(N3CCN(C4CCC4)CC3)n1)CCN(Cc1ccc(N3CCCC3)nc1)C2 [Compound 96, 4-(4-cyclobutylpiperazin-1-yl)-7-[(6-pyrrolidin-1-ylpyridin-3-yl)methyl]-5,6,7,8-tetrahydropyrido[3,4-d]pyrimidine]
Fc1ccccc1CN1CCc2nc(N3CCN(C4CCC4)CC3)ncc2C1 [Compound 611, 2-(4-cyclobutylpiperazin-1-yl)-6-(2-fluorobenzyl)-5,6,7,8-tetrahydropyrido[4,3-d]pyrimidine]
c1cncc(CN2CCc3ncnc(N4CCN(C5CCC5)CC4)c3CC2)c1 [Compound 154, 4-(4-cyclobutylpiperazin-1-yl)-7-(pyridin-3-ylmethyl)-6,7,8,9-tetrahydro-5H-pyrimido[4,5-d]azepine]
O=C(c1cccc(F)c1)N1CCc2c(ncnc2N2CCN(C3CCC3)CC2)C1 [Compound 29, 4-(4-cyclobutylpiperazin-1-yl)-7-(3-fluorobenzoyl)-5,6,7,8-tetrahydropyrido[3,4-d]pyrimidine]
Fc1ccc(CN2CCc3ncnc(N4CCN(C5CCC5)CC4)c3CC2)cc1 [Compound 147, 4-(4-cyclobutylpiperazin-1-yl)-7-(4-fluorobenzyl)-6,7,8,9-tetrahydro-5H-pyrimido[4,5-d]azepine]
COc1ccccc1CN1CCc2ncnc(N3CCN(C4CCC4)CC3)c2CC1 [Compound 157, 4-(4-cyclobutylpiperazin-1-yl)-7-(2-methoxybenzyl)-6,7,8,9-tetrahydro-5H-pyrimido[4,5-d]azepine]
c1nc2c(c(N3CCN(C4CCC4)CC3)n1)CCN(Cc1ccc(N3CCCC3)nc1)CC2 [Compound 178, 4-(4-cyclobutylpiperazin-1-yl)-7-[(6-pyrrolidin-1-ylpyridin-3-yl)methyl]-6,7,8,9-tetrahydro-5H-pyrimido[4,5-d]azepine]
Clc1ccccc1CN1CCc2nc(N3CCN(C4CCC4)CC3)ncc2C1 [Compound 645, 6-(2-chlorobenzyl)-2-(4-cyclobutylpiperazin-1-yl)-5,6,7,8-tetrahydropyrido[4,3-d]pyrimidine]
Cc1cc(CN2CCc3c(ncnc3N3CCN(C4CCC4)CC3)C2)n(C)n1 [Compound 77]
O=C(C1CCCCC1)N1CCc2c(ncnc2N2CCN(C3CCC3)CC2)C1 [Compound 55, 4-(4-cyclobutylpiperazin-1-yl)-7-(cyclohexylcarbonyl)-5,6,7,8-tetrahydropyrido[3,4-d]pyrimidine]

Same assay, conditions: test compound 4 μM, 1 μM histamine; read-out: percent inhibition of agonist-induced GTP-gammaS binding to H3

Inhibition at 4 µM, ≥ 90%:
c1nc2c(c(N3CCN(C4CCC4)CC3)n1)CCN(CC1CCCCC1)C2 [Compound 2, 4-(4-Cyclobutylpiperazin-1-yl)-7-cyclohexylmethyl-5,6,7,8-tetrahydropyrido[3,4-d]pyrimidine]
